Data taken from PubChem BioAssay AID248 (DTP/NCI, 2004).
Where “and” joins values, the source holds several entries; their conditions need not be identical. Equal values may be shown once. Inconclusive results and toxic doses are left out.

Test system: L1210 leukemia ip in BDF1 mice, survival T/C
Assay: NCI In Vivo Anticancer Drug Screen. Data for tumor model L1210 Leukemia (intraperitoneal) in B6D2F1 (BDF1) mice
Conditions: endpoint: mean survival time, higher = longer survival
In short: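 Value reflects the ratio of survival in compound-treated mice to survival in vehicle-treated controls, with both groups carrying the same transplanted tumor.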

[1] = dose: 100.0 mg/kg/injection, schedule: Q04DX002 (ip), vehicle: saline with Tween-80
[2] = dose: 200.0 mg/kg/injection, schedule: Q04DX002 (ip), vehicle: saline with Tween-80
[3] = dose: 400.0 mg/kg/injection, schedule: Q04DX002 (ip), vehicle: saline with Tween-80
[4] = dose: 100.0 mg/kg/injection, schedule: Q04DX003 (ip), vehicle: saline with Tween-80
[5] = dose: 200.0 mg/kg/injection, schedule: Q04DX003 (ip), vehicle: saline with Tween-80
[6] = dose: 100.0 mg/kg/injection, schedule: Q01DX001 (ip), vehicle: carboxymethylcellulose (CMC)
[7] = dose: 200.0 mg/kg/injection, schedule: Q01DX001 (ip), vehicle: carboxymethylcellulose (CMC)
[8] = dose: 400.0 mg/kg/injection, schedule: Q01DX001 (ip), vehicle: carboxymethylcellulose (CMC)

N#CCN1CCCCCC1
T/C (dose: 5.0 mg/kg/injection, schedule: Q01DX009 (ip), vehicle: Klucel (hydroxypropylcellulose) (HPC)): 102 % of control | T/C (dose: 10.0 mg/kg/injection, schedule: Q01DX009 (ip), vehicle: Klucel (hydroxypropylcellulose) (HPC)): 98 % of control | T/C (dose: 10.0 mg/kg/injection, schedule: Q04DX003 (ip), vehicle: Klucel (hydroxypropylcellulose) (HPC)): 98 % of control | T/C (dose: 20.0 mg/kg/injection, schedule: Q04DX003 (ip), vehicle: Klucel (hydroxypropylcellulose) (HPC)): 91 % of control

BrC[Si](c1ccccc1)(c1ccccc1)c1ccccc1
T/C [1]: 96 % of control | T/C [2]: 96 % of control | T/C [3]: 92 % of control

CC1(C)CC[C@]2(C(=O)O)CC[C@]3(C)C(=CC[C@@H]4[C@@]5(C)CC[C@H](O)C(C)(C)[C@@H]5CC[C@]43C)[C@@H]2C1
T/C (dose: 50.0 mg/kg/injection, schedule: Q01DX009 (ip), vehicle: saline): 94 % of control | T/C (dose: 100.0 mg/kg/injection, schedule: Q01DX001 (sc), vehicle: saline): 103 % of control | T/C (dose: 100.0 mg/kg/injection, schedule: Q01DX009 (ip), vehicle: saline): 94 % of control | T/C (dose: 100.0 mg/kg/injection, schedule: Q04DX002 (ip), vehicle: saline): 97 % of control | T/C (dose: 200.0 mg/kg/injection, schedule: Q01DX001 (sc), vehicle: saline): 103 % of control | T/C (dose: 200.0 mg/kg/injection, schedule: Q01DX009 (ip), vehicle: saline): 97 % of control | T/C (dose: 200.0 mg/kg/injection, schedule: Q04DX002 (ip), vehicle: saline): 97 % of control | T/C (dose: 400.0 mg/kg/injection, schedule: Q01DX001 (sc), vehicle: saline): 103 % of control | T/C (dose: 400.0 mg/kg/injection, schedule: Q04DX002 (ip), vehicle: saline): 94 % of control

Cc1ccc(S(=O)(=O)CC(=O)NC(C)C)cc1
T/C [4]: 100 % of control | T/C [5]: 110 % of control | T/C (dose: 400.0 mg/kg/injection, schedule: Q04DX003 (ip), vehicle: saline with Tween-80): 97 % of control

COc1ccccc1C(C(C)C)C(C)C
T/C [4]: 105 % of control | T/C [5]: 101 % of control

CC(C)Cc1cc(C#N)cc(C(C)(C)C)c1O
T/C (dose: 100.0 mg/kg/injection, schedule: Q04DX002 (ip), vehicle: Klucel (hydroxypropylcellulose) (HPC)): 100 % of control | T/C (dose: 200.0 mg/kg/injection, schedule: Q04DX002 (ip), vehicle: Klucel (hydroxypropylcellulose) (HPC)): 100 % of control | T/C (dose: 400.0 mg/kg/injection, schedule: Q04DX002 (ip), vehicle: Klucel (hydroxypropylcellulose) (HPC)): 103 % of control

CN(C)C(=O)N1CCCCC1
T/C [1]: 101 % of control | T/C [2]: 93 % of control | T/C [3]: 111 % of control

C[N+](C)(CCc1ccccc1)CC(O)COc1ccccc1 (stereo unspecified)
T/C (dose: 4.5 mg/kg/injection, schedule: Q01DX009 (ip), vehicle: Klucel (hydroxypropylcellulose) (HPC)): 89 % of control | T/C (dose: 9.0 mg/kg/injection, schedule: Q01DX009 (ip), vehicle: Klucel (hydroxypropylcellulose) (HPC)): 92 % of control | T/C (dose: 18.0 mg/kg/injection, schedule: Q01DX009 (ip), vehicle: Klucel (hydroxypropylcellulose) (HPC)): 94 % of control | T/C (dose: 18.75 mg/kg/injection, schedule: Q04DX003 (ip), vehicle: Klucel (hydroxypropylcellulose) (HPC)): 98 % of control

COc1cc(C=Nc2cc(Cl)c(O)c(Cl)c2)ccc1N(CCCl)CCCl
T/C (dose: 1.4 mg/kg/injection, schedule: Q01DX009 (ip), vehicle: carboxymethylcellulose (CMC)): 113 % of control | T/C (dose: 2.1 mg/kg/injection, schedule: Q01DX009 (ip), vehicle: carboxymethylcellulose (CMC)): 105 % of control | T/C (dose: 5.3 mg/kg/injection, schedule: Q01DX009 (ip), vehicle: carboxymethylcellulose (CMC)): 112 % of control | T/C (dose: 10.0 mg/kg/injection, schedule: Q01DX009 (ip), vehicle: carboxymethylcellulose (CMC)): 171 % of control | T/C (dose: 11.1 mg/kg/injection, schedule: Q01DX001 (ip), vehicle: carboxymethylcellulose (CMC)): 122 % of control | T/C (dose: 12.0 mg/kg/injection, schedule: Q01DX009 (ip), vehicle: carboxymethylcellulose (CMC)): 110 % of control | T/C (dose: 16.6 mg/kg/injection, schedule: Q01DX001 (ip), vehicle: carboxymethylcellulose (CMC)): 116 % of control and 123 % of control | T/C (dose: 18.0 mg/kg/injection, schedule: Q01DX009 (ip), vehicle: carboxymethylcellulose (CMC)): 88 % of control | T/C (dose: 25.0 mg/kg/injection, schedule: Q01DX001 (ip), vehicle: carboxymethylcellulose (CMC)): 122 % of control

NC1=C(Sc2ccccc2)C(=O)c2ccccc2C1=O
T/C (dose: 100.0 mg/kg/injection, schedule: Q01DX001 (ip), vehicle: saline with Tween-80): 105 % of control | T/C (dose: 200.0 mg/kg/injection, schedule: Q01DX001 (ip), vehicle: saline with Tween-80): 94 % of control | T/C (dose: 400.0 mg/kg/injection, schedule: Q01DX001 (ip), vehicle: saline with Tween-80): 94 % of control

Nc1c(-c2ccccc2)nnn1-c1cccc(Cl)c1
T/C (dose: 25.0 mg/kg/injection, schedule: Q04DX002 (ip), vehicle: gum acacia): 95 % of control | T/C (dose: 50.0 mg/kg/injection, schedule: Q04DX002 (ip), vehicle: gum acacia): 95 % of control | T/C (dose: 100.0 mg/kg/injection, schedule: Q04DX002 (ip), vehicle: gum acacia): 96 % of control and 98 % of control

CCC1CC2c3cc(OC)c(OC)cc3CCN2CC1(O)Cc1nccc2c1CCCC2 (stereo unspecified)
T/C [6]: 104 % of control | T/C [7]: 103 % of control | T/C [8]: 95 % of control

O=C(O)/C=C/C(=O)NC1CCCCC1
T/C (dose: 100.0 mg/kg/injection, schedule: Q01DX009 (ip), vehicle: saline with Tween-80): 94 % of control | T/C (dose: 200.0 mg/kg/injection, schedule: Q01DX009 (ip), vehicle: saline with Tween-80): 96 % of control | T/C (dose: 400.0 mg/kg/injection, schedule: Q01DX009 (ip), vehicle: saline with Tween-80): 98 % of control

O=C(Nc1ccc(CCO)cc1)Nc1cc(C(F)(F)F)ccc1Cl
T/C (dose: 100.0 mg/kg/injection, schedule: Q01DX009 (ip), vehicle: Klucel (hydroxypropylcellulose) (HPC)): 100 % of control | T/C (dose: 200.0 mg/kg/injection, schedule: Q01DX009 (ip), vehicle: Klucel (hydroxypropylcellulose) (HPC)): 95 % of control

CCn1ccc2c(N)ncnc21
T/C (dose: 50.0 mg/kg/injection, schedule: Q01DX001 (ip), vehicle: saline): 95 % of control

COc1cc2c(c3c1c(=O)c1ccccc1n3C)C=CC(C)(C)O2
T/C (dose: 6.0 mg/kg/injection, schedule: Q01DX001 (ip), vehicle: acetone): 101 % of control | T/C (dose: 7.5 mg/kg/injection, schedule: Q01DX Z (ip), vehicle: other): 106 % of control | T/C (dose: 12.0 mg/kg/injection, schedule: Q01DX001 (ip), vehicle: acetone): 97 % of control | T/C (dose: 15.0 mg/kg/injection, schedule: Q01DX001 (ip), vehicle: other): 97 % of control | T/C (dose: 15.0 mg/kg/injection, schedule: Q01DX Z (ip), vehicle: other): 114 % of control | T/C (dose: 25.0 mg/kg/injection, schedule: Q01DX001 (ip), vehicle: acetone): 105 % of control | T/C (dose: 30.0 mg/kg/injection, schedule: Q01DX001 (ip), vehicle: other): 94 % of control | T/C (dose: 30.0 mg/kg/injection, schedule: Q01DX Z (ip), vehicle: other): 122 % of control | T/C (dose: 50.0 mg/kg/injection, schedule: Q01DX001 (ip), vehicle: acetone): 118 % of control | T/C (dose: 50.0 mg/kg/injection, schedule: Q01DX009 (ip), vehicle: acetone): 103 % of control | T/C (dose: 60.0 mg/kg/injection, schedule: Q01DX001 (ip), vehicle: other): 105 % of control | T/C (dose: 60.0 mg/kg/injection, schedule: Q01DX Z (ip), vehicle: other): 103 % of control | T/C (dose: 100.0 mg/kg/injection, schedule: Q01DX001 (ip), vehicle: acetone): 114 % of control | T/C (dose: 100.0 mg/kg/injection, schedule: Q01DX009 (ip), vehicle: acetone): 91 % of control | T/C (dose: 120.0 mg/kg/injection, schedule: Q01DX001 (ip), vehicle: other): 105 % of control | T/C (dose: 400.0 mg/kg/injection, schedule: Q01DX001 (ip), vehicle: acetone): 116 % of control

N#Cc1ccc2c(c1)Cc1cc([N+](=O)[O-])ccc1-2
T/C [6]: 100 % of control | T/C [7]: 105 % of control | T/C [8]: 91 % of control

NNC(=O)C1CC12CC2 (stereo unspecified)
T/C (dose: 100.0 mg/kg/injection, schedule: Q01DX001 (ip), vehicle: saline): 106 % of control and 109 % of control | T/C (dose: 200.0 mg/kg/injection, schedule: Q01DX001 (ip), vehicle: saline): 103 % of control
